pIC50: −log10 of the molar value.
What was measured:
[1] = target: Protein kinase C beta type (Homo sapiens, UniProt P05771); experiment: Inhibition of human recombinant PKCbeta expressed in Sf21 cells using Bio-cdc peptide substrate and ATP after 60 mins by time-resolved fluorescence in-vitro kinase assay
Canis familiaris [2] = experiment: Reduction in mean arterial pressure in anesthetized dog cardiovascular model at plasma concentration of 7.7 uM in presence of hexamethonium; format: ADME, organism-based, Canis lupus familiaris; conditions: in vivo
[3] = Plasma clearance in rat at 1 mg/kg, iv or 3 mg/kg, po; format: ADME, organism-based
Canis familiaris [4] = experiment: Reduction in mean arterial pressure in anesthetized dog cardiovascular model at plasma concentration of 1.7 uM; format: ADME, organism-based, Canis lupus familiaris; conditions: in vivo
Canis familiaris [5] = experiment: Reduction in dP/dtmax in anesthetized dog cardiovascular model at plasma concentration of 2.2 uM in presence of hexamethonium; format: ADME, organism-based, Canis lupus familiaris; set-up: scale not given: the % may be the effect or the level left; conditions: in vivo
Canis familiaris [6] = experiment: Increase in dP/dtma in anesthetized dog cardiovascular model at plasma concentration of 7.7 uM; conditions: in vivo
[7] = Permeability from apical to basolateral side in MDCK2-MDR1 cells at pH 7.4; format: ADME, cell-based, Canis lupus familiaris, MDCK-II; conditions: dog, MDCK-MDR1, pH 7.4; read-out: permeability
Canis familiaris [8] = experiment: Reduction in dP/dtma in anesthetized dog cardiovascular model at plasma concentration of 1.7 uM; format: ADME, organism-based, Canis lupus familiaris; set-up: scale not given: the % may be the effect or the level left; conditions: in vivo
Rattus norvegicus [9] = experiment: Reduction in mean arterial pressure in rat cardiovascular model at 3 to 30 mg/kg dosed over 30 mins infusions; conditions: in vivo, iv, 0.5 h
[10] = target: Protein kinase C delta type (Homo sapiens, UniProt Q05655); experiment: Inhibition of human recombinant PKCdelta expressed in Sf21 cells using Bio-cdc peptide substrate and ATP after 60 mins by time-resolved fluorescence in-vitro kinase assay
Sequence of Protein kinase C delta type (Q05655 whole entry): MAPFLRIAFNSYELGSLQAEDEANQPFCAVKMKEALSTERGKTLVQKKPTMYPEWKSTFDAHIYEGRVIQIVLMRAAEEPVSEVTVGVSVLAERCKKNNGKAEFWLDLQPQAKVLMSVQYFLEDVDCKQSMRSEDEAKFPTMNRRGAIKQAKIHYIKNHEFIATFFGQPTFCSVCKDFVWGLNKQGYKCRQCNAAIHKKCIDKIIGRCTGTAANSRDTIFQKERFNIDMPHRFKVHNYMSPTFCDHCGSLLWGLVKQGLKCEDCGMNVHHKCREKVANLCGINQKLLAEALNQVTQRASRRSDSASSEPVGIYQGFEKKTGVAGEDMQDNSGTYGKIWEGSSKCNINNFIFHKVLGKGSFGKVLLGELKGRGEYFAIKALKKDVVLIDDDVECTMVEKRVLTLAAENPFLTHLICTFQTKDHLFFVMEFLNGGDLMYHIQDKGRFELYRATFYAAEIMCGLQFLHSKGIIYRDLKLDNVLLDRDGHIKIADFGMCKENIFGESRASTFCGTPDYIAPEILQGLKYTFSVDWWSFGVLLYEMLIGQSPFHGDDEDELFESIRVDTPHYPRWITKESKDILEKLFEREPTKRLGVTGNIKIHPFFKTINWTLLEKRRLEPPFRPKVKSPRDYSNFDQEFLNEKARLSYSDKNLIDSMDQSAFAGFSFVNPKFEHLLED

[11] = Oral bioavailability in rat at 3 mg/kg; format: ADME, organism-based; conditions: in vivo
[12] = Unbound intrinsic clearance in rat microsomes; format: ADME, Microsome
[13] = target: Protein kinase C alpha type (Homo sapiens, UniProt P17252)
[14] = Half life in mouse at 3 mg/kg, iv or 10 mg/kg, po; format: ADME, organism-based; conditions: in vivo
[15] = Inhibition of human recombinant […] expressed in Sf21 cells using Bio-cdc peptide substrate and ATP after 60 mins by time-resolved fluorescence in-vitro kinase assay
[16] = Half life in rat at 1 mg/kg, iv or 3 mg/kg, po; format: ADME, organism-based; conditions: in vivo
Canis familiaris [17] = experiment: Reduction in dP/dtmax in anesthetized dog cardiovascular model at plasma concentration of 7.7 uM in presence of hexamethonium; format: ADME, organism-based, Canis lupus familiaris; set-up: scale not given: the % may be the effect or the level left; conditions: in vivo
[18] = Unbound intrinsic clearance in human microsomes; format: ADME, Microsome
[19] = AUC in mouse at 3 mg/kg, iv or 10 mg/kg, po; format: ADME, organism-based; conditions: plasma
Rattus norvegicus [20] = experiment: Effect on left ventricular dP/dt50 in rat cardiovascular model at 3 to 30 mg/kg dosed over 30 mins infusions; conditions: in vivo, iv, 0.5 h
Canis familiaris [21] = experiment: Reduction in mean arterial pressure in anesthetized dog cardiovascular model at plasma concentration of 6.9 uM; format: ADME, organism-based, Canis lupus familiaris; conditions: in vivo
Rattus norvegicus [22] = experiment: Reduction in heart rate in rat cardiovascular model at 3 to 30 mg/kg dosed over 30 mins infusions; conditions: in vivo, iv, 0.5 h
[23] = target: T1, Protein kinase C epsilon type (Homo sapiens, UniProt Q02156); experiment: Inhibition of human recombinant PKCepsilon expressed in Sf21 cells using Bio-cdc peptide substrate and ATP after 60 mins by time-resolved fluorescence in-vitro kinase assay
T1 sequence (Q02156 whole entry): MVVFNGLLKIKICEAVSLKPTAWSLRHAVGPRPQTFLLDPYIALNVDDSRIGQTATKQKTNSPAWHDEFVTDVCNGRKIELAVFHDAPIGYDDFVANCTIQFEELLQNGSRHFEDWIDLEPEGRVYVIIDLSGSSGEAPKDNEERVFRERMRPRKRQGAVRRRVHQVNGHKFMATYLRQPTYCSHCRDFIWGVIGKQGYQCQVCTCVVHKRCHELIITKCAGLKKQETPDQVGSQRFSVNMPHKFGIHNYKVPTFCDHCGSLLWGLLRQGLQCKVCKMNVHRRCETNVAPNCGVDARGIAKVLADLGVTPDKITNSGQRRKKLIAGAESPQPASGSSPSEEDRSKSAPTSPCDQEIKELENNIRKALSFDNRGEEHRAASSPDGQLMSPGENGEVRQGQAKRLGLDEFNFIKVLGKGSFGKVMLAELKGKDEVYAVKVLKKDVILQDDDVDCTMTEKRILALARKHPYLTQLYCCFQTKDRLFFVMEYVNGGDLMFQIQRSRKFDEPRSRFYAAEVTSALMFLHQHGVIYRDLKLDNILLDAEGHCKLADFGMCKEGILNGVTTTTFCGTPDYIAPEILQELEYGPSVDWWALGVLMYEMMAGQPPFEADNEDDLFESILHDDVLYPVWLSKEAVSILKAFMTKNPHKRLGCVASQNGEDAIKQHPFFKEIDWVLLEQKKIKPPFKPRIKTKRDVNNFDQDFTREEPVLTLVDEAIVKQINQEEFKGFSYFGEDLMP

[24] = Oral bioavailability in mouse at 10 mg/kg; format: ADME, organism-based; conditions: in vivo
[25] = Plasma clearance in mouse at 3 mg/kg, iv or 10 mg/kg, po; format: ADME, organism-based
[26] = target: Voltage-gated inwardly rectifying potassium channel KCNH2 (Homo sapiens, UniProt Q12809); experiment: Inhibition of human ERG
Sequence of Voltage-gated inwardly rectifying potassium channel KCNH2 (Q12809 whole entry): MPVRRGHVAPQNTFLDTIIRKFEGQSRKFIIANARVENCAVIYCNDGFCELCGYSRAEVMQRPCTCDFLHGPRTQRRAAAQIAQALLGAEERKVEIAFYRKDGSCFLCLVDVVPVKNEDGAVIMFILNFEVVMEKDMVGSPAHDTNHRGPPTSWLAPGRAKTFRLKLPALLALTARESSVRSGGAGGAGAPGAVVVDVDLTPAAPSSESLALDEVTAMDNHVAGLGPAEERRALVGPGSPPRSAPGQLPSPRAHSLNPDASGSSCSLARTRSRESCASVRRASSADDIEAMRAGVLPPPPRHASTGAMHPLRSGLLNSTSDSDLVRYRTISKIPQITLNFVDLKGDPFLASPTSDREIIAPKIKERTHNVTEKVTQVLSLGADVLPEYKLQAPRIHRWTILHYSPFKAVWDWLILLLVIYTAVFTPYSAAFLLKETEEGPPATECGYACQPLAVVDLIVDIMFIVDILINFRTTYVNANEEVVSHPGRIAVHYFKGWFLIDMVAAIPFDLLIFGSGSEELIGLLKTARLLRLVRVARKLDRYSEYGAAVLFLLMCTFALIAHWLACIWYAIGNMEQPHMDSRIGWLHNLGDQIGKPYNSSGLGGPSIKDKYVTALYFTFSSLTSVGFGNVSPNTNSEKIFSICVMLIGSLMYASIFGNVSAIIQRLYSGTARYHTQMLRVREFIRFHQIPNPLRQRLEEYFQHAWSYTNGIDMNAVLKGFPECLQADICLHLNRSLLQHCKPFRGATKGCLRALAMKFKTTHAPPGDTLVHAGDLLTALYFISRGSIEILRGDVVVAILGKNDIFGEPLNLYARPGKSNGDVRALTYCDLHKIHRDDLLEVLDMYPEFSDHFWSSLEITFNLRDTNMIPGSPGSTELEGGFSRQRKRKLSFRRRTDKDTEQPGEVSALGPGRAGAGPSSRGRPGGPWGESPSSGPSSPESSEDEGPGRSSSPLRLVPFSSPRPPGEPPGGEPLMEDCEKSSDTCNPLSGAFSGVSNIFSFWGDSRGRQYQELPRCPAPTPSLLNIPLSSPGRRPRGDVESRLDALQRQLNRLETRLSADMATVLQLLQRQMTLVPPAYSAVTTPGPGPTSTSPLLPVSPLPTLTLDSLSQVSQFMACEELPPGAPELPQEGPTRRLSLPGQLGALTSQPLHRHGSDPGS

[27] = target: T2, Protein kinase C zeta type (Homo sapiens, UniProt Q05513); experiment: Inhibition of human recombinant PKCzeta expressed in Sf21 cells using Bio-cdc peptide substrate and ATP after 60 mins by time-resolved fluorescence in-vitro kinase assay
T2 sequence (Q05513 whole entry): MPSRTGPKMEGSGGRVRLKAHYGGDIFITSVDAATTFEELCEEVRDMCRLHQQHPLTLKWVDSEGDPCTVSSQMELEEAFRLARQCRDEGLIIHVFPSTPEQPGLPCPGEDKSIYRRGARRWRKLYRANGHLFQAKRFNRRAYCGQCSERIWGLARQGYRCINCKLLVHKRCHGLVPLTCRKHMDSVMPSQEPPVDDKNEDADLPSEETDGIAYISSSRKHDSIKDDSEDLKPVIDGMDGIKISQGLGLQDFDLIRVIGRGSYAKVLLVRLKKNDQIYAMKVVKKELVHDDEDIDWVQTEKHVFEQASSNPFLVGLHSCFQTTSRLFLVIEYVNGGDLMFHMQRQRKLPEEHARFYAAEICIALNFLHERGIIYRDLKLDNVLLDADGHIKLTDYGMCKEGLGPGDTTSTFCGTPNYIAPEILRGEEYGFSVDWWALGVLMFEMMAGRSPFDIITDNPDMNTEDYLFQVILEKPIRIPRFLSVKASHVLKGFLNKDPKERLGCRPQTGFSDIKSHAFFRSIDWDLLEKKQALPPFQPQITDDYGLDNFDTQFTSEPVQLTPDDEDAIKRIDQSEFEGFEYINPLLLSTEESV

[28] = AUC in rat at 1 mg/kg, iv or 3 mg/kg, po; format: ADME, organism-based; conditions: plasma
[29] = Unbound intrinsic clearance in mouse microsomes; format: ADME, Microsome
Canis familiaris [30] = experiment: Reduction in mean arterial pressure in anesthetized dog cardiovascular model in presence of hexamethonium; conditions: in vivo
cells = conditions: Homo sapiens, T-Blast, 24 h
Description: Inhibition of anti-CD3/anti-CD28 antibody-induced IL2 production in human T-Blast cells after 24 hrs

[31] = Cmax in mouse at 3 mg/kg, iv or 10 mg/kg, po; format: ADME, organism-based; conditions: in vivo
[32] = target: Protein kinase C gamma type (Homo sapiens, UniProt P05129); experiment: Inhibition of human recombinant PKCgamma expressed in Sf21 cells using Bio-cdc peptide substrate and ATP after 60 mins by time-resolved fluorescence in-vitro kinase assay
[33] = Cmax in rat at 1 mg/kg, iv or 3 mg/kg, po; format: ADME, organism-based; conditions: in vivo
[34] = Plasma concentration in concanavalin A-induced Balb/c mouse at 100 mg/kg, po dosed 2 hrs before concanavalin A challenge; format: ADME, organism-based; set-up: dose 100 mg/kg, route oral
[35] = Plasma concentration in concanavalin A-induced Balb/c mouse at 1 mg/kg, po dosed 2 hrs before concanavalin A challenge; format: ADME, organism-based; set-up: dose 1 mg/kg, route oral
Mus musculus [36] = experiment: Reduction in paw swelling in DBA/J mouse model of glucose 6-phosphate isomerase-induced athritis at 10 mg/kg, po dosed twice daily from day 1 to day 17; format: functional
[37] = Plasma concentration in concanavalin A-induced Balb/c mouse at 10 mg/kg, po dosed 2 hrs before concanavalin A challenge; format: ADME, organism-based; set-up: dose 10 mg/kg, route oral
[38] = Fraction unbound in mouse plasma; format: ADME, cell-free
[39] = AUC (0 to t) in DBA/J mouse model of glucose 6-phosphate isomerase-induced athritis at 30 mg/kg, po dosed twice daily from day 1 to day 17; format: ADME, organism-based; set-up: dose 30 mg/kg, route oral; conditions: in vivo
[40] = AUC (0 to t) in DBA/J mouse model of glucose 6-phosphate isomerase-induced athritis at 10 mg/kg, po dosed twice daily from day 1 to day 17; format: ADME, organism-based; set-up: dose 10 mg/kg, route oral; conditions: in vivo
[41] = Plasma concentration in concanavalin A-induced Balb/c mouse at 3 mg/kg, po dosed 2 hrs before concanavalin A challenge; format: ADME, organism-based; set-up: dose 3 mg/kg, route oral
Mus musculus [42] = experiment: Toxicity in DBA/J mouse model of glucose 6-phosphate isomerase-induced athritis at 100 mg/kg, po dosed twice daily for >10 days; format: organism-based; set-up: dose 100 mg/kg, route oral; conditions: in vivo, 240 h
[43] = Plasma concentration in concanavalin A-induced Balb/c mouse at 30 mg/kg, po dosed 2 hrs before concanavalin A challenge; format: ADME, organism-based; set-up: dose 30 mg/kg, route oral
Mus musculus [44] = experiment: Reduction in paw swelling in DBA/J mouse model of glucose 6-phosphate isomerase-induced athritis at 30 mg/kg, po dosed twice daily from day 1 to day 17; format: functional

Sequence of Protein kinase C beta type (P05771 whole entry): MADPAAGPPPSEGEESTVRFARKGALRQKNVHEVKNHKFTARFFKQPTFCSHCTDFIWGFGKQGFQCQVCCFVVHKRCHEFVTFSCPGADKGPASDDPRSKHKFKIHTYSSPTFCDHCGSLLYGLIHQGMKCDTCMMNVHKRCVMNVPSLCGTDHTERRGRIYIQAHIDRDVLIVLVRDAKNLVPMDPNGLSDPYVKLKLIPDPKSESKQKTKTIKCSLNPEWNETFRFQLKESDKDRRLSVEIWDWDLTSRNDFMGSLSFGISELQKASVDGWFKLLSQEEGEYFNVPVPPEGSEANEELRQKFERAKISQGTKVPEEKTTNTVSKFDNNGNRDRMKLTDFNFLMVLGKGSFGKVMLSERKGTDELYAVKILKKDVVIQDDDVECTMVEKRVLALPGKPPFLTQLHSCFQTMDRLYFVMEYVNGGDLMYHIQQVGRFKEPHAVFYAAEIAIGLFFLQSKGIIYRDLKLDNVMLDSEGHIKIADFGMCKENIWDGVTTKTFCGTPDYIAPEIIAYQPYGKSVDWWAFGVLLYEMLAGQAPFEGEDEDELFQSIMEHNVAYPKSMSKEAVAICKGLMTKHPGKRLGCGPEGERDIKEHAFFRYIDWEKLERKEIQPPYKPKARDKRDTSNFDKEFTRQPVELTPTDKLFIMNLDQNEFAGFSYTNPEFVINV

Row | Structure (SMILES) | clearance [3] [mL/min/kg] | Papp A→B [7] [×10⁻⁶ cm/s] | bioavailability [11] [%] | CL free [12] [mL/min/kg] | pIC50 [13] | half-life [14] [h] | half-life [16] [h] | CL free [18] [mL/min/kg] | AUC [19] [ng·h/mL] | bioavailability [24] [%] | clearance [25] [mL/min/kg] | pIC50 [26] | AUC [28] [ng·h/mL] | CL free [29] [mL/min/kg] | pIC50 (cells) | Cmax [31] [ng/mL] | Cmax [33] [ng/mL] | other results
1 | C[C@@H]1C(=O)NN=C2COc3cc(C(F)(F)F)c(NC4CNC4)cc3N21 | 35 | 0.44 | 28 | < 78.3 | 5.34 | 2.7 | 5.5 | 80 | 1730 | 85 | 96.7 | < 4.52 | 409 | < 138 | 6.66 | 342 | 80 | pIC50 [1]: 5.82; Activity (Canis familiaris [2]): -12 mmHg; Activity (Canis familiaris [4]): 1 mmHg; Activity (Canis familiaris [5]): -4%; Activity (Canis familiaris [6]): 34%; Activity (Canis familiaris [8]): 3%; Activity (Rattus norvegicus [9]): Toxic; pIC50 [10]: 6.33; pIC50 [15]: 5.41; Activity (Canis familiaris [17]): -7%; Activity (Rattus norvegicus [20]): Non-toxic; Activity (Canis familiaris [21]): 3 mmHg; Activity (Rattus norvegicus [22]): Toxic; pIC50 [23]: 6.85; pIC50 [27]: 4.48; Activity (Canis familiaris [30]): -3 mmHg; pIC50 [32]: 5.11
2 | C[C@@H]1C(=O)NN=C2COc3cc(C(F)(F)F)c(NC4(C)CNC4)cc3N21 | 45 | 1.5 | 74 | < 55 | 5.77 | 3.1 | 4.7 | < 33 | 9260 | 108 | 25 | < 4.52 | 782 | < 95 | 6.92 | 846 | 160 | concentration at 2 h [34]: 2500 nM; concentration at 2 h [35]: 37 nM; inhibition in vivo at 10 mg/kg (Mus musculus [36]): 62%; concentration at 2 h [37]: 310 nM; fraction unbound [38]: 0.27; AUC(0-t) [39]: 15100 ng·h/mL; AUC(0-t) [40]: 4500 ng·h/mL; concentration at 2 h [41]: 110 nM; Activity (Mus musculus [42]): Toxic; concentration at 2 h [43]: 900 nM; inhibition in vivo at 30 mg/kg (Mus musculus [44]): 100%
